Data published in article PMC9127807, “Echinocandins Localized to the Target-Harboring Cell Surface Are Not Degraded but Those Entering the Vacuole Are” (ACS Chemical Biology, 2022).
Converted amounts (≈) assume the structure as drawn. “And” between values parts separate entries of the source, which are not always exact repeats. Equal values may be shown once. Read-outs that look alike come from different tables or passages of the source. Starred links: 1 amine or outer side, 2 acyl side, 3 side chain; linkers in the order of their positions; H or OH if unused. Positions of bridges follow the written chain, without caps; N, C: chain ends. Non-standard residues stand in square brackets, D forms with d. Residues, ends and D or L forms follow the SMILES beside them. *: point of attachment. X1 = O=C([C@@H](N[*:1])[C@H](O)[C@@H](O)c1ccc(OCc2cn(CCCNc3ccc([N+](=O)[O-])c4nonc34)nn2)cc1)[*:2]; Orn(4R-OH,5R-OCH2CH2NMe3+) = C[N+](C)(C)CCO[C@@H](N[*:3])[C@H](O)C[C@H](N[*:1])C(=O)[*:2]; pTerphenylCO(4''-OnC5H11) = CCCCCOc1ccc(-c2ccc(-c3ccc(C(=O)*)cc3)cc2)cc1; Orn(4R-OH,5R-OH) = O=C([C@H](C[C@@H](O)[C@@H](O)N[*:3])N[*:1])[*:2]; hTyr(3S-OH,4S-OH) = N[C@H](C(=O)O)[C@H](O)[C@@H](O)c1ccc(O)cc1; Pro(3S-OH,4S-Me) = C[C@H]1CN[C@H](C(=O)O)[C@H]1O; Hyp = O=C(O)[C@@H]1C[C@@H](O)CN1

Key:
C. albicans ATCC 10231 = settings: strain D, echinocandin-susceptible; YPAD broth, 24 h, 30 °C, OD600 reduced by ≥75%
Description: (§1) Candida strains were streaked from glycerol stock onto YPAD agar plates and grown for 24 h at 30 °C. Colonies were suspended in 1 mL of PBS and diluted to an optical density of 2 × 10^–4 at 600 nm (OD600) in flat-bottom 96-well microplates (Corning) with YPAD broth containing dilutions of each tested compound at concentrations ranging from 64 to 0.008 μg/mL in twofold dilutions. Control wells with yeast cells but no drug and blank wells that contained only YPAD were prepared. MIC values (Table S2) were determined after 24 h at 30 °C by measuring the OD600 using a plate reader (Infinite M200 PRO, Tecan). MIC values were defined as the point at which the OD600 was reduced by ≥75% compared to the no-drug wells. Each concentration was tested in triplicate, and the results were confirmed by two independent sets of experiments.

C. albicans ATCC 24433 = settings: strain C, echinocandin-susceptible; YPAD broth, 24 h, 30 °C, OD600 reduced by ≥75%
Description: as §1

C. albicans ATCC 90028 = settings: strain E, echinocandin-susceptible; YPAD broth, 24 h, 30 °C, OD600 reduced by ≥75%
Description: as §1

[1] = system: C. albicans DPL1016 (DP-A15-10); settings: strain F, echinocandin resistant FKS mutation; YPAD broth, 24 h, 30 °C, OD600 reduced by ≥75%
Description: as §1

C. albicans SC5314 = settings: strain A, echinocandin-susceptible; YPAD broth, 24 h, 30 °C, OD600 reduced by ≥75%; triplicate, two independent experiments
Description: as §1

[2] = system: C. albicans T-2068 (DP-C42); settings: strain G, echinocandin resistant FKS mutation; YPAD broth, 24 h, 30 °C, OD600 reduced by ≥75%
Description: as §1

C. glabrata ATCC 2001 = settings: strain I, echinocandin-susceptible; YPAD broth, 24 h, 30 °C, OD600 reduced by ≥75%
Description: as §1

C. glabrata ATCC 66032 = settings: strain J, echinocandin-susceptible; YPAD broth, 24 h, 30 °C, OD600 reduced by ≥75%
Description: as §1

C. glabrata ATCC 90030 = settings: strain K, echinocandin-susceptible; YPAD broth, 24 h, 30 °C, OD600 reduced by ≥75%
Description: as §1

C. glabrata EF1620 = settings: strain H, echinocandin-susceptible; YPAD broth, 24 h, 30 °C, OD600 reduced by ≥75%
Description: as §1

C. glabrata T-192 (1775) = settings: strain L, echinocandin-susceptible; YPAD broth, 24 h, 30 °C, OD600 reduced by ≥75%
Description: as §1

C. glabrata TGL00275 = settings: strain M, echinocandin resistant FKS mutation; YPAD broth, 24 h, 30 °C, OD600 reduced by ≥75%
Description: as §1

C. glabrata TGL00277 = settings: strain N, echinocandin resistant FKS mutation; YPAD broth, 24 h, 30 °C, OD600 reduced by ≥75%
Description: as §1

C. albicans SN152 = experiment: MIC broth double-dilution assay; type: cell-based, Candida albicans; settings: strain B, echinocandin-susceptible; YPAD broth, 24 h, 30 °C, OD600 reduced by ≥75%
Description: as §1, with “Colonies” for “Candida strains were streaked from glycerol stock onto YPAD agar plates and grown for 24 h at 30 °C. Colonies”

[3] = incubation in human plasma for 44 h at 37 °C; cited from earlier work
From the text: Intending to develop echinocandins with improved chemical stability under physiological conditions, Cidara Therapeutics developed rezafungin (RZF), a novel ANF derivative with distinctive pharmacokinetic and pharmacodynamic profiles, which entered phase III trials in October 2018 (Figure 1).[18]−[21] […] Instead of the daily intravenous administration regime used for the other three echinocandins, RZF can be administered intravenous ...

C. albicans SC5314 cells = settings: for percentage degraded: 24 h, 10 μM, 30 °C, RP-HPLC of lysates
Description: C. albicans SC5314 cells were streaked from glycerol stocks onto YPAD agar plates and grown for 24 h at 30 °C. Colonies were grown in tubes in 3 mL of YPAD broth for 24 h at 30 °C with shaking. Cultures were diluted 1:50 and incubated in 5 mL of YPAD broth for 3 h at 30 °C with shaking until log-phase growth was observed. Cultures were then centrifuged (4000 rpm, 3 min), washed with PBS buffer, and resuspended in 1 mL of PBS buffer or YPAD. Cells were incubated with TMR-based probes (1 or 3) at a final concentration of 10 μM at 30 °C with shaking in the dark for 24 h. After washing three times with PBS, cells were resuspended in 75 μL of TNE buffer (10 mM Tris, 100 mM NaCl, and 1 mM ethylenediaminetetraacetic acid, pH 8.0) in a 1.5 mL Eppendorf tube, and 0.5 mm diameter beads were added to the yeast solution. The mixture was agitated on a vortex at maximum speed for 5 min. Next, 200 μL of 2% Triton X-100 in TNE buffer (v/v) was added to the agitated solution, and then the mixture was sonicated for 15 min. To clarify the yeast lysate, the mixture was centrifuged twice (16 000g, 20 min), and the supernatant was removed and filtered using a 0.22 μm syringe filter. The samples were analyzed using analytical reverse-phase HPLC at a 550 nm wavelength. HPLC conditions: mobile phase: acetonitrile in H2O (containing 0.1% trifluoroacetic acid (v/v)), gradient from 10 to 90%; flow rate: 1 mL/min; absorbance wavelength: 550 nm. Each sample was tested in two independent sets of experiments. The percentages of intact echinocandin were determined using the area calculation function available in the Hitachi Primaide Software and are presented as means (two replicates) ± standard deviation (SD).

[4] = system: C. albicans SC5314 cell lysate; settings: incubated with lysate of C. albicans SC5314 in buffer for 24 h; RP-HPLC
Description: C. albicans SC5314 cells were streaked from glycerol stocks onto YPAD agar plates and grown for 24 h at 30 °C. Colonies were grown in tubes in 3 mL of YPAD broth for 24 h at 30 °C with shaking. Cultures were diluted 1:50 and incubated in 5 mL of YPAD broth for 3 h at 30 °C with shaking until log-phase growth was observed. Cultures were then centrifuged (4000 rpm, 3 min), washed with PBS buffer, and resuspended in 1 mL of PBS buffer or YPAD. Cells were incubated with TMR-based probes (1 or 3) at a final concentration of 10 μM at 30 °C with shaking in the dark for 24 h. After washing three times with PBS, cells were resuspended in 75 μL of TNE buffer (10 mM Tris, 100 mM NaCl, and 1 mM ethylenediaminetetraacetic acid, pH 8.0) in a 1.5 mL Eppendorf tube, and 0.5 mm diameter beads were added to the yeast solution. The mixture was agitated on a vortex at maximum speed for 5 min. […] The samples were analyzed using analytical reverse-phase HPLC at a 550 nm wavelength. HPLC conditions: mobile phase: acetonitrile in H2O (containing 0.1% trifluoroacetic acid (v/v)), gradient from 10 to 90%; flow rate: 1 mL/min; absorbance wavelength: 550 nm. […] The percentages of intact echinocandin were determined using the area calculation function available in the Hitachi Primaide Software and are presented as means (two replicates) ± standard deviation (SD).

| SMILES | MIC (C. albicans ATCC 10231) [µg/mL] | MIC (C. albicans ATCC 24433) [µg/mL] | MIC (C. albicans ATCC 90028) [µg/mL] | MIC [1] [µg/mL] | MIC (C. albicans SC5314) [µg/mL] | MIC [2] [µg/mL] | MIC (C. glabrata ATCC 2001) [µg/mL] | MIC (C. glabrata ATCC 66032) [µg/mL] | MIC (C. glabrata ATCC 90030) [µg/mL] | MIC (C. glabrata EF1620) [µg/mL] | MIC (C. glabrata T-192 (1775)) [µg/mL] | MIC (C. glabrata TGL00275) [µg/mL] | MIC (C. glabrata TGL00277) [µg/mL] | MIC (C. albicans SN152) [µg/mL] | percent of intact drug [3] [%] | percentage degraded (C. albicans SC5314 cells; cells in nutrient-free PBS buffer) | percentage degraded (C. albicans SC5314 cells; cells in nutrient-rich YPAD medium) | percentage intact (C. albicans SC5314 cells; control: 5 min incubation with the cells in PBS, RP-HPLC) [%] | percentage intact [4] | decomposition (C. albicans SC5314 cells; incubated with cells or lysates of C. albicans SC5314, 24 h, regardless of the media used (PBS, YPAD)) |
| --- | --- | --- | --- | --- | --- | --- | --- | --- | --- | --- | --- | --- | --- | --- | --- | --- | --- | --- | --- | --- |
| CCCCCOc1ccc(-c2ccc(-c3ccc(C(=O)N[C@H]4C[C@@H](O)[C@@H](O)NC(=O)[C@@H]5[C@@H](O)[C@@H](C)CN5C(=O)[C@H]([C@@H](C)O)NC(=O)[C@H]([C@H](O)[C@@H](O)c5ccc(O)cc5)NC(=O)[C@@H]5C[C@@H](O)CN5C(=O)[C@H]([C@@H](C)O)NC4=O)cc3)cc2)cc1 [ANF, anidulafungin, reference compound] ({pTerphenylCO(4''-OnC5H11)}-[Orn(4R-OH,5R-OH)]T[Hyp][hTyr(3S-OH,4S-OH)]T[Pro(3S-OH,4S-Me)]; lactam 1-C) | 0.016 (≈ 0.014 µM) | 0.008 (≈ 0.00702 µM) | 0.016 (≈ 0.014 µM) | 4 (≈ 3.51 µM) | 0.008 (≈ 0.00702 µM) | 4 (≈ 3.51 µM) | 0.008 (≈ 0.00702 µM) | 0.016 (≈ 0.014 µM) | 0.016 (≈ 0.014 µM) | 0.008 (≈ 0.00702 µM) | 0.008 (≈ 0.00702 µM) | 4 (≈ 3.51 µM) | > 64 | 0.008 (≈ 0.00702 µM) | 7 | – | – | – | – | – |
| CC[C@H](C)C[C@H](C)CCCCCCCCC(=O)N[C@H]1C[C@@H](O)[C@@H](NCCN)NC(=O)[C@@H]2[C@@H](O)CCN2C(=O)[C@H]([C@H](O)CCN)NC(=O)[C@H]([C@H](O)[C@@H](O)c2ccc(O)cc2)NC(=O)[C@@H]2C[C@@H](O)CN2C(=O)[C@H]([C@@H](C)O)NC1=O [CSF, caspofungin, reference compound] | 0.063 (≈ 0.0576 µM) | 0.031 (≈ 0.0284 µM) | 0.063 (≈ 0.0576 µM) | 32 (≈ 29.3 µM) | 0.031 (≈ 0.0284 µM) | 16 (≈ 14.6 µM) | 0.063 (≈ 0.0576 µM) | 0.063 (≈ 0.0576 µM) | 0.125 (≈ 0.114 µM) | 0.031 (≈ 0.0284 µM) | 0.016 (≈ 0.0146 µM) | 16 (≈ 14.6 µM) | > 64 | 0.031 (≈ 0.0284 µM) | – | – | – | – | – | – |
| CC[C@H](C)C[C@H](C)CCCCCCCCC(=O)N[C@H]1C[C@@H](O)[C@@H](NCCN)NC(=O)[C@@H]2[C@@H](O)CCN2C(=O)[C@H]([C@H](O)CCN)NC(=O)[C@H]([C@H](O)[C@@H](O)c2ccc(OCc3cn(CCCNC(=O)c4ccc(-c5c6ccc(=[N+](C)C)cc-6oc6cc(N(C)C)ccc56)c(C(=O)[O-])c4)nn3)cc2)NC(=O)[C@@H]2C[C@@H](O)CN2C(=O)[C@H]([C@@H](C)O)NC1=O [Probe 1] | – | – | – | – | – | – | – | – | – | – | – | – | – | – | – | approximately 70% | approximately 40% | ~80 | 78% and ~80% | – |
| CC[C@H](C)C[C@H](C)CCCCCCCCC(=O)N[C@H]1C[C@@H](O)[C@@H](NCCN)NC(=O)[C@@H]2[C@@H](O)CCN2C(=O)[C@H]([C@H](O)CCN)NC(=O)[C@H]([C@H](O)[C@@H](O)c2ccc(OCc3cn(CCCNc4ccc([N+](=O)[O-])c5nonc45)nn3)cc2)NC(=O)[C@@H]2C[C@@H](O)CN2C(=O)[C@H]([C@@H](C)O)NC1=O [Probe 2] | 2 (≈ 1.43 µM) | 2 (≈ 1.43 µM) | 2 (≈ 1.43 µM) | > 64 | 1 (≈ 0.717 µM) | 64 (≈ 45.9 µM) | 2 (≈ 1.43 µM) | 4 (≈ 2.87 µM) | 4 (≈ 2.87 µM) | 4 (≈ 2.87 µM) | 2 (≈ 1.43 µM) | > 64 | > 64 | 1 (≈ 0.717 µM) | – | – | – | – | – | – |
| CCCCCOc1ccc(-c2ccc(-c3ccc(C(=O)N[C@H]4C[C@@H](O)[C@@H](OCCc5cn(CCCNC(=O)c6ccc(-c7c8ccc(=[N+](C)C)cc-8oc8cc(N(C)C)ccc78)c(C(=O)[O-])c6)nn5)NC(=O)[C@@H]5[C@@H](O)[C@@H](C)CN5C(=O)[C@H]([C@@H](C)O)NC(=O)[C@H]([C@H](O)[C@@H](O)c5ccc(O)cc5)NC(=O)[C@@H]5C[C@@H](O)CN5C(=O)[C@H]([C@@H](C)O)NC4=O)cc3)cc2)cc1 [Probe 3] | – | – | – | – | – | – | – | – | – | – | – | – | – | – | – | – | – | – | – | no significant decomposition |
| CCCCCOc1ccc(-c2ccc(-c3ccc(C(=O)N[C@H]4C[C@@H](O)[C@@H](OCCc5cn(CCCNc6ccc([N+](=O)[O-])c7nonc67)nn5)NC(=O)[C@@H]5[C@@H](O)[C@@H](C)CN5C(=O)[C@H]([C@@H](C)O)NC(=O)[C@H]([C@H](O)[C@@H](O)c5ccc(O)cc5)NC(=O)[C@@H]5C[C@@H](O)CN5C(=O)[C@H]([C@@H](C)O)NC4=O)cc3)cc2)cc1 [Probe 4] | 0.25 (≈ 0.172 µM) | 0.25 (≈ 0.172 µM) | 0.5 (≈ 0.344 µM) | > 64 | 0.25 (≈ 0.172 µM) | > 64 | 0.5 (≈ 0.344 µM) | 0.5 (≈ 0.344 µM) | 0.5 (≈ 0.344 µM) | 0.5 (≈ 0.344 µM) | 0.25 (≈ 0.172 µM) | > 64 | > 64 | 0.25 (≈ 0.172 µM) | – | – | – | – | – | – |
| CCCCCOc1ccc(-c2ccc(-c3ccc(C(=O)N[C@H]4C[C@@H](O)[C@@H](OCC[N+](C)(C)C)NC(=O)[C@@H]5[C@@H](O)[C@@H](C)CN5C(=O)[C@H]([C@@H](C)O)NC(=O)[C@H]([C@H](O)[C@@H](O)c5ccc(OCc6cn(CCCNc7ccc([N+](=O)[O-])c8nonc78)nn6)cc5)NC(=O)[C@@H]5C[C@@H](O)CN5C(=O)[C@H]([C@@H](C)O)NC4=O)cc3)cc2)cc1 [Probe 6] ({pTerphenylCO(4''-OnC5H11)}-[Orn(4R-OH,5R-OCH2CH2NMe3+)]T[Hyp][X1]T[Pro(3S-OH,4S-Me)]; lactam 1-C) | 0.5 | 0.5 | 0.5 | > 64 | 0.5 | > 64 | 1 | 1 | 1 | 0.5 | 0.5 | > 64 | > 64 | 0.5 | – | – | – | – | – | – |
| CCCCCOc1ccc(-c2ccc(-c3ccc(C(=O)N[C@H]4C[C@@H](O)[C@@H](OCC[N+](C)(C)C)NC(=O)[C@@H]5[C@@H](O)[C@@H](C)CN5C(=O)[C@H]([C@@H](C)O)NC(=O)[C@H]([C@H](O)[C@@H](O)c5ccc(O)cc5)NC(=O)[C@@H]5C[C@@H](O)CN5C(=O)[C@H]([C@@H](C)O)NC4=O)cc3)cc2)cc1 [RZF, rezafungin, reference compound] ({pTerphenylCO(4''-OnC5H11)}-[Orn(4R-OH,5R-OCH2CH2NMe3+)]T[Hyp][hTyr(3S-OH,4S-OH)]T[Pro(3S-OH,4S-Me)]; lactam 1-C) | 0.063 | 0.031 | 0.031 | 8 | 0.016 | 4 | 0.063 | 0.031 | 0.031 | 0.016 | 0.016 | 8 | > 64 | 0.031 | 91 | – | – | – | – | – |
